The values below come from patent US20070224165A1, “Neuroprotective Effects of Gly-Pro-Glu Following Intravenous Infusion” (Neuren Pharmaceuticals Limited, priority 2003, published 2007).

Where only a bound is given, the exact number is not on record here.

The nature of series [1]: in vivo. The conditions noted are these: rat, iv, 30 mg/kg. On the procedure:
Blood samples (≈220 ul) were collected into heparinized tubes containing 20 μl Sigma protease inhibitor cocktail for mammalian tissues diluted at a 1:9 ratio in 0.1 M PBS (pH=7). The samples were collected at 20, 10 and 0 min before and 1, 2, 4, 8, 16, 32 and 64 min after injection. […] The samples were centrifuged at 3000× g for 15 min at 4° C. and the plasma removed and stored at −80° C. until extraction and assay.

The conditions of series [2]: rat, in vivo, iv, 3 mg/kg.
Procedure: (§1) The ED-50 was 195 pg/tube, and the limit of detection was 2 pg/ml. The intra-assay CV was <10% over the range 0.5 to 25 ng/ml. Any samples reading off the standard curve were further diluted before being re-assayed.
Series [3] can be described thus: in vivo. The conditions noted are these: rat, iv, 3 mg/kg.
Procedure: as §1

In the case of `NCC(=O)N1CCC[C@H]1C(=O)N[C@@H](CCC(=O)O)C(=O)O` [GPE, glycine-proline-glutamate], in “in vivo [1]”, the “Pro-Glu in plasma by HPLC” value is recorded as “could not be identified” and the level at 1 min was 33000 ng/mL. Besides, the “time for plasma GPE to decline back to baseline values” in series [2] is given as not above 8 min. In addition, the level at 8 min in the series “in vivo [3]” is 9.8 ± 1.33 ng/mL.
